Results as given in ChEMBL document CHEMBL5126666, “Cladoxanthones A and B, Xanthone-Derived Metabolites with a Spiro[cyclopentane-1,2'-[3,9a]ethanoxanthene]-2,4',9',11'-tetraone Skeleton from a Cladosporium sp” (J Nat Prod, 2022).

Experiments:
Assay type in all cases: functional, cell-based
[1] = Antiproliferative activity against mouse MB49 cells assessed as reduction in cell viability after 24 hrs by MTT assay; settings: MB49, 24 h
J82 = assay: Antiproliferative activity against human J82 cells assessed as reduction in cell viability after 24 hrs by MTT assay; settings: J82, 24 h
4T1 = assay: Antiproliferative activity against mouse 4T1 cells assessed as reduction in cell viability after 24 hrs by MTT assay; settings: 4T1, 24 h
Huh-7 = assay: Antiproliferative activity against human Huh-7 cells assessed as reduction in cell viability after 24 hrs by MTT assay; settings: Huh-7, 24 h

IC50 (4T1) | IC50 (Huh-7) | Structure (SMILES) | IC50 [1] | IC50 (J82)
27.5 µM | 46.4 µM | CC1=CC(=O)[C@]2(O)C(=O)c3c(ccc(-c4ccc5c(c4O)C(=O)[C@@]46C[C@@]7(C(=O)CC[C@@H]7C)[C@@](C)(CC4=O)C(=O)[C@]6(C)O5)c3O)O[C@@]2(C)[C@H]1O | 41.7 µM | 24.7 µM
38.7 µM | 24.3 µM | C[C@H]1CCC(=O)[C@@]12C[C@]13C(=O)C[C@@]2(C)C(=O)[C@]1(C)Oc1cccc(O)c1C3=O | 13.9 µM | 25 µM
